This is an account of results in PMC7918738, “Microtubule Destabilizing Sulfonamides as an Alternative to Taxane-Based Chemotherapy” (International Journal of Molecular Sciences, 2021).

Experiment [1] concerns SKOV3 ovarian carcinoma cells. Briefly: Antiproliferative activity against SKOV3 (MTT). It counts as cell-based. The note with it: Homo sapiens, SK-OV-3, 72 h. The method, then: (§1) The in vitro antiproliferative activity of compounds 38, 42, and 45 against a panel of five human ovarian carcinoma cell lines (SKOV3, IGROV-1, A2780, OVCAR-8, and OVCAR-3) was evaluated by a colorimetric method (Table 3) and compared with paclitaxel. […] For SKOV3, the potency reduction observed for paclitaxel together with a sustained or improved (42 with a 7 nM IC50 value) potency for MDS results in a more favorable profile of the MDS compared to paclitaxel.
(§2) MCF7 (human breast carcinoma), SKOV-3 (human ovarian carcinoma), OVCAR-3 (human ovarian carcinoma), OVCAR-8 (human ovarian carcinoma), and HeLa (human cervical carcinoma) cell lines were cultured in Dulbecco’s Modified Eagle’s Medium (DMEM) (Gibco, Thermo Fischer Scientific) containing 10% (v/v) heat-inactivated fetal bovine serum (HIFBS) (Lonza-Cambrex, Karlskoga, Sweden), 2 mM L-glutamine (Lonza-Cambrex, Karlskoga, Sweden), 100 μg/mL streptomycin, and 100 IU/mL penicillin (Lonza-Cambrex) at 37 °C in humidified 95% air and 5% CO2. HT-29 (human colon carcinoma), IGROV-1 (human ovarian carcinoma), and A2780 (human ovarian carcinoma) cell lines were cultured in RPMI 1640 medium (Gibco, Thermo Fischer Scientific) supplemented with 10% HIFBS, 100 μg/mL streptomycin, and 100 IU/mL penicillin at 37 °C in humidified 95% air and 5% CO2 atmosphere. The presence of mycoplasma was routinely checked with MycoAlert kit (Lonza-Cambrex) and only mycoplasma-free cells were used in the experiments. Ovarian tumor cell lines were originally acquired from Dr Atanasio Pandiella from Centro de Investigación del Cáncer (CIC), Salamanca, Spain. HeLa, HT-29 and MCF7 tumor cell lines were provided by Dr Faustino Mollinedo from Centro de Investigaciones Biológicas Margarita Salas, Madrid, Spain.
(§3) MCF7, HeLa, and HT-29 cell proliferation, when treated with the corresponding compounds, were determined using the XTT (sodium 3’-[1(phenylaminocarbonyl)-3,4-tetrazolium]-bis(4-methoxy-6-nitro)-benzenesulfonic acid hydrate) cell proliferation kit (Roche Molecular Biochemicals, Mannheim, Germany). […] The absorbance of the formazan product generated was measured at 450 nm using a multi-well plate reader. SKOV-3, OVCAR-3, OVCAR-8, IGROV-1, A-2780 cell proliferation, when treated with the corresponding compound, were determined using MTT (3-(4,5-dimethylthiazol-2-yl)-2,5-diphenyl-2H-tetrazolium bromide) (Sigma-Aldrich, St. Louis, MO, USA). […] Absorbance was measured at 570 nm in a plate reader (Ultra Evolution, Tecan, Männedorf, Suiza). […] After 24 h incubation, to allow cells to attach to the plates, all compounds were added at 1 µM concentration and the effect on the proliferation was evaluated 72 h post-treatment. […]

In experiment [2] the test system is IGROV-1 ovarian carcinoma cells. Briefly: Antiproliferative activity against IGROV-1 (MTT). It counts as cell-based. The note with it: Homo sapiens, 72 h. As to the method:
as §1, §2, §3

The test system of experiment [3] is OVCAR-8 ovarian carcinoma cells. Nature of the experiment: Antiproliferative activity against OVCAR-8 (MTT). It counts as cell-based. The note with it: Homo sapiens, 72 h. The method, then:
as §1
(§4) MCF7 (human breast carcinoma), SKOV-3 (human ovarian carcinoma), OVCAR-3 (human ovarian carcinoma), OVCAR-8 (human ovarian carcinoma), and HeLa (human cervical carcinoma) cell lines were cultured in Dulbecco’s Modified Eagle’s Medium (DMEM) (Gibco, Thermo Fischer Scientific) containing 10% (v/v) heat-inactivated fetal bovine serum (HIFBS) (Lonza-Cambrex, Karlskoga, Sweden), 2 mM L-glutamine (Lonza-Cambrex, Karlskoga, Sweden), 100 μg/mL streptomycin, and 100 IU/mL penicillin (Lonza-Cambrex) at 37 °C in humidified 95% air and 5% CO2. […]
as §3

Experiment [4] deals with OVCAR-3 ovarian carcinoma cells. Briefly: Antiproliferative activity against OVCAR-3 (MTT). It counts as cell-based. Conditions: Homo sapiens, 72 h. The method, then:
as §1, §4, §3

The subject of experiment [5] is SKOV3 cells. Nature of the experiment: Cell cycle analysis in SKOV3 (PI staining, flow cytometry). Conditions: 38 600 nM, 42 50 nM, 45 400 nM; for SKOV3 cells at G2/M phase: 24 h. It counts as cell-based, human. The method, then:
(§5) The effect of the lead MDS on the cell cycle of MCF7, SKOV3, and HeLa cells was analyzed in time-course experiments at 24, 48, and 72 h post-treatment by DNA staining and flow cytometry quantification. The working concentration for each compound (600 nM for 38, 50 nM for 42, and 400 nM for 45) was established at the complete inhibition of cell proliferation in view of individually assays run in parallel for each cell line.
(§6) Cell cycle analysis was performed in MCF7, SKOV-3, and HeLa cells by quantifying the DNA content by flow cytometry. Cells in the exponential growth phase at 2·10^4 cells/mL were seeded in 24-well plates (1 mL/well). After 24 h incubation, cells were treated with different concentrations of the selected compounds and the effect of treated and untreated cells was measured 24, 48, and 72 h post-treatment. Live and dead cells were collected and fixed in ice-cold ethanol/PBS (7:3) and stored at 4 °C for later use. Cells were rehydrated with PBS, treated with 100 µg/mL RNase A (Sigma-Aldrich Co., St. Louis, MO, USA) and stained overnight in darkness at room temperature with 50 µg/mL PI (Sigma-Aldrich Co.). Cell cycle profiles were then analyzed by flow cytometry using BD Accuri™ C6 Plus Flow Cytometer (BD Biosciences, San José, CA, USA). Data were analyzed with BD Accuri™ C6 Software (version 1.0.264.21, BD Biosciences, San José, CA, USA) and compared to control cells. Compounds were dissolved in DMSO and the final solvent concentration never exceeded 0.5% (v/v). Control wells included cells with 0.5% (v/v) DMSO.
(A flow cytometer gives signals particle by particle.)

Experiment [6] has as its system HeLa cells. Nature of the experiment: Cell cycle analysis in HeLa (PI staining, flow cytometry). It counts as cell-based, human. Conditions: 24 h; 38 600 nM, 42 50 nM, 45 400 nM. The method, then:
as §5, §6

With `CNc1ccc(S(=O)(=O)N(C)c2cc(OC)c(OC)c(OC)c2)cc1` [Compound 38], the IC50 (as a rule, the concentration at which inhibition is half-maximal) came to 0.046 µM in experiment [1], 0.248 µM in experiment [2], 0.074 µM in experiment [3] and 0.031 µM in experiment [4]. The “SKOV3 cells at G2/M phase” value in experiment [5] came out at 44%. In addition, the “SKOV3 cells at SubG0/G1” value in experiment [5] (48 h) turned out to be 35%; in experiment [5] (72 h) it was 43%. The “HeLa cells at G2/M phase” value in experiment [6] amounted to 80%.

For the molecule `COc1ccc(S(=O)(=O)N(C)c2cc(OC)c(OC)c(OC)c2)cc1N` [Compound 42], the IC50 in experiment [1] turned out to be 0.007 µM; in experiment [2], 0.4 µM; in experiment [3], 0.037 µM; in experiment [4], 0.072 µM. Besides, in experiment [5], the “SKOV3 cells at G2/M phase” value is recorded as 44%. Besides, the “SKOV3 cells at SubG0/G1” value worked out at 34% in experiment [5] (48 h) and 53% in experiment [5] (72 h). Moreover, the “HeLa cells at G2/M phase” value in experiment [6] is 44%.

In the case of `COc1ccc(S(=O)(=O)N(Cc2ccccc2)c2cc(OC)c(OC)c(OC)c2)cc1N` [Compound 45], the IC50 in experiment [1] was 0.048 µM; in experiment [2], 0.492 µM; in experiment [3], 0.048 µM; in experiment [4] it was 0.058 µM. The “SKOV3 cells at G2/M phase” value in experiment [5] came out at 44%. Besides, the figures for the “SKOV3 cells at SubG0/G1” value in experiment [5] (48 h) and in experiment [5] (72 h) were 46% and 63%, respectively. Besides, the “HeLa cells at G2/M phase” value in experiment [6] is 80%.
